Measured values taken from patent US20170313674A1, “BENZYLHYDROXIDE DERIVATIVES, PREPARATION THEREOF AND THERAPEUTIC USE THEREOF” (SANOFI, priority 2014, published 2017).
Where two headings read alike, the source gives them in different places.

Legend:
[1] = test system: mitochondrial ATP production on non-small cell lung carcinoma cell lines NCI-H460; test: Mitochondrial ATP analysis (Cell Titer Glo) in NCI-H460 cells; assay type: cell-based; conditions: 1-hour incubation, with sodium iodoacetate (100 μM), concentration inhibiting 50% of mitochondrial ATP production, read-out: IC50 (mito ATP)
How it was run: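 NCI-H460 cells (1,000/well) treated 24 h after plating for 1 h with compound dose series alone or with 100 μM sodium iodoacetate; oligomycin A (10 μg/ml) and FCCP (30 μM) as controls; Cell Titer Glo luminescence. Mitochondrial ATP = ATP under iodoacetate minus ATP under iodoacetate+oligomycin; IC50 (M).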

HIF-1a = test: Western blot model: HIF1-a stabilization in Hep3b cells under hypoxia; assay type: cell-based; conditions: hypoxia 1% O2, 6 hours; for Western Blot (range of decrease of HIF1-a stabilization): class symbol
Description: Since it was sought to determine the efficacy of the compounds to inhibit HIF1a stabilization under hypoxia, the compounds according to the invention underwent biochemical studies in order to determine their capacity to decrease HIF stabilization in Hep3b cells under hypoxia (western blot model).
Hep3B cells are seeded at a rate of 300000 cells per well in 6-wells culture plate in 2 ml of MEM supplemented with glutamin (2 mM) and 10% FCS (foetal calf serum) and incubated at 37° C. in the presence of 5% CO2. The next day, the cells are placed in contact with the compound and an incubation under hypoxia at 1% O2 is carried out at 37° C. in 95% humidity and 5% CO2 in a sealed anaerobic workstation (Hypoxystation H35-Don Whitley—AES Chemunex) during 6 hours.
Cells were washed (PBS) and lysed in SDS sample buffer. Proteins (25 μg) were separated on 4-12% Bis-Tris gels and transferred onto polyvinylidene difluoride membranes (Millipore). Membranes were blotted with a mouse monoclonal antibody to HIF-1a (BD transduction) and a mouse monoclonal anti-βactin (Sigma). Immunoreactive bands were detected with a horse radish peroxydase (HRP) anti-mouse antibody (Sigma) by enhanced chemiluminescence (Promega).
The inhibitory activity of the compounds for their capacity to decrease HIF1-a stabilization in Hep3b under hypoxia is expressed as range of percentage relative to control with: […]

Structure (SMILES)	IC50 ([1]; Homo sapiens, NCI-H460, 1 h) [nM]	IC50 [1] [nM]	Western Blot (decrease of HIF1-a stabilization, percentage relative to control) (HIF-1a) [%]	Western Blot (range of decrease of HIF1-a stabilization) (HIF-1a)
COc1ccc(C(O)C(C)(C)Oc2ccc(-c3nc(-c4ccc(OC(C)(C)C(O)c5ccc(OC)c(OC)c5)cc4)c(C)o3)cc2)cc1OC (single isomer, unassigned) [Compound I-3, 1-(3,4-dimethoxyphenyl)-2-[4-[2-[4-[2-(3,4-dimethoxyphenyl)-2-hydroxy-1,1-dimethyl-ethoxy]phenyl]-5-methyl-oxazol-4-yl]phenoxy]-2-methyl-propan-1-ol]	8.85	–	70	*** (*** represents a decrease of HIF-a stabilization higher than 70%)
COc1ccc(C(O)C(C)Oc2ccc(-c3cnc(-c4ccc(OC(C)C(O)c5ccc(OC)c(OC)c5)cc4)o3)cc2)cc1OC (stereo not drawn) [Compound I-45, 1-(3,4-dimethoxyphenyl)-2-[4-[2-[4-[2-(3,4-dimethoxyphenyl)-2-hydroxy-1-methyl-ethoxy]phenyl]oxazol-5-yl]phenoxy]propan-1-ol]	426	–	87	*** (*** represents a decrease of HIF-a stabilization higher than 70%)
COc1ccc(C(O)C(C)(C)Oc2ccc(-c3nc(-c4ccc(OC(C)(C)C(O)c5ccc(OC)c(OC)c5)cc4)c(C)s3)cc2)cc1OC (single isomer, unassigned) [Compound I-9, 1-(3,4-dimethoxyphenyl)-2-[4-[2-[4-[2-(3,4-dimethoxyphenyl)-2-hydroxy-1,1-dimethyl-ethoxy]phenyl]-5-methyl-thiazol-4-yl]phenoxy]-2-methyl-propan-1-ol]	3.86	–	58.5	** (** represents a decrease of HIF-a stabilization between 50 to 70%)
COc1ccc(C(O)C(C)(C)Oc2ccc(-c3coc(-c4ccc(OC(C)(C)C(O)c5ccc(OC)c(OC)c5)cc4)n3)cc2)cc1OC (single isomer, unassigned) [Compound I-18, 1-(3,4-dimethoxyphenyl)-2-[4-[2-[4-[2-(3,4-dimethoxyphenyl)-2-hydroxy-1,1-dimethyl-ethoxy]phenyl]oxazol-4-yl]phenoxy]-2-methyl-propan-1-ol]	–	62.8	71	*** (*** represents a decrease of HIF-a stabilization higher than 70%)
COc1ccc(C(O)C(C)(C)Oc2ccc(-c3cn(C)c(-c4ccc(OC(C)(C)C(O)c5ccc(OC)c(OC)c5)cc4)n3)cc2)cc1OC (stereo not drawn) [Compound I-57, 1-(3,4-dimethoxyphenyl)-2-[4-[2-[4-[2-(3,4-dimethoxyphenyl)-2-hydroxy-1,1-dimethyl-ethoxy]phenyl]-1-methyl-imidazol-4-yl]phenoxy]-2-methyl-propan-1-ol]	51.9	–	18	− (− represents a decrease of HIF1-a stabilization is less than 30%)
COc1ccc(C(O)C(C)(C)Oc2ccc(-c3c[nH]c(-c4ccc(OC(C)(C)C(O)c5ccc(OC)c(OC)c5)cc4)n3)cc2)cc1OC (single isomer, unassigned) [Compound I-56, 1-(3,4-dimethoxyphenyl)-2-[4-[2-[4-[2-(3,4-dimethoxyphenyl)-2-hydroxy-1,1-dimethyl-ethoxy]phenyl]-1H-imidazol-4-yl]phenoxy]-2-methyl-propan-1-ol]	–	760	75	*** (*** represents a decrease of HIF-a stabilization higher than 70%)
COc1ccc(C(O)C(C)(C)Oc2ccc(-c3csc(-c4ccc(OC(C)(C)C(O)c5ccc(OC)c(OC)c5)cc4)n3)cc2)cc1OC (stereo not drawn) [Compound I-26, 1-(3,4-dimethoxyphenyl)-2-[4-[2-[4-[2-(3,4-dimethoxyphenyl)-2-hydroxy-1,1-dimethyl-ethoxy]phenyl]thiazol-4-yl]phenoxy]-2-methyl-propan-1-ol]	7.32	–	39	* (* represents a decrease of HIF-a stabilization between 30 to 50%)
COc1ccc(C(O)C(C)Oc2ccc(-c3nsc(-c4ccc(OC(C)C(O)c5ccc(OC)c(OC)c5)cc4)n3)cc2)cc1OC (stereo not drawn) [Compound I-39, 1-(3,4-dimethoxyphenyl)-2-[4-[5-[4-[2-(3,4-dimethoxyphenyl)-2-hydroxy-1-methyl-ethoxy]phenyl]-1,2,4-thiadiazol-3-yl]phenoxy]propan-1-ol]	92.5	–	51	** (** represents a decrease of HIF-a stabilization between 50 to 70%)
COc1ccc(C(O)C(C)(C)Oc2ccc(-c3nsc(-c4ccc(OC(C)(C)C(O)c5ccc(OC)c(OC)c5)cc4)n3)cc2)cc1OC (single isomer, unassigned) [Compound I-44, 1-(3,4-dimethoxyphenyl)-2-[4-[5-[4-[2-(3,4-dimethoxyphenyl)-2-hydroxy-1,1-dimethyl-ethoxy]phenyl]-1,2,4-thiadiazol-3-yl]phenoxy]-2-methyl-propan-1-ol]	–	54.4	45	* (* represents a decrease of HIF-a stabilization between 30 to 50%)
COc1ccc(C(O)C(C)Oc2ccc(-c3csc(-c4ccc(OC(C)C(O)c5ccc(OC)c(OC)c5)cc4)n3)cc2)cc1OC (single isomer, unassigned) [Compound I-33, 1-(3,4-dimethoxyphenyl)-2-[4-[2-[4-[2-(3,4-dimethoxyphenyl)-2-hydroxy-1-methyl-ethoxy]phenyl]thiazol-4-yl]phenoxy]propan-1-ol]	–	30.1	52	* (* represents a decrease of HIF-a stabilization between 30 to 50%)

Continued, in another order:

IC50 ([1]; Homo sapiens, NCI-H460, 1 h) [nM]	IC50 [1] [nM]	Structure (SMILES)	Western Blot (decrease of HIF1-a stabilization, percentage relative to control) (HIF-1a) [%]	Western Blot (range of decrease of HIF1-a stabilization) (HIF-1a)
–	679	COc1ccc(C(O)COc2ccc(-c3coc(-c4ccc(OCC(O)c5ccc(OC)c(OC)c5)cc4)n3)cc2)cc1OC (single isomer, unassigned) [Compound I-14, 1-(3,4-dimethoxyphenyl)-2-[4-[2-[4-[2-(3,4-dimethoxyphenyl)-2-hydroxy-ethoxy]phenyl]oxazol-4-yl]phenoxy]ethanol]	59	** (** represents a decrease of HIF-a stabilization between 50 to 70%)
21.3	–	COc1ccc(C(O)C(C)(C)Oc2ccc(-c3nc(-c4ccc(OC(C)(C)C(O)c5ccc(OC)c(OC)c5)cc4)c(C)s3)cc2)cc1OC (stereo not drawn) [Compound I-6, 1-(3,4-dimethoxyphenyl)-2-[4-[2-[4-[2-(3,4-dimethoxyphenyl)-2-hydroxy-1,1-dimethyl-ethoxy]phenyl]-5-methyl-thiazol-4-yl]phenoxy]-2-methyl-propan-1-ol]	43	* (* represents a decrease of HIF-a stabilization between 30 to 50%)
–	69	COc1ccc(C(O)COc2ccc(-c3coc(-c4ccc(OCC(O)c5ccc(OC)c(OC)c5)cc4)n3)cc2)cc1OC (single isomer, unassigned) [Compound I-13, 1-(3,4-dimethoxyphenyl)-2-[4-[2-[4-[2-(3,4-dimethoxyphenyl)-2-hydroxy-ethoxy]phenyl]oxazol-4-yl]phenoxy]ethanol]	51	** (** represents a decrease of HIF-a stabilization between 50 to 70%)
–	> 10000	COc1ccc(C(O)COc2ccc(-c3noc(-c4ccc(OCC(O)c5ccc(OC)c(OC)c5)cc4)n3)cc2)cc1OC (single isomer, unassigned) [Compound I-48, 1-(3,4-dimethoxyphenyl)-2-[4-[5-[4-[2-(3,4-dimethoxyphenyl)-2-hydroxy-ethoxy]phenyl]-1,2,4-oxadiazol-3-yl]phenoxy]ethanol]	87	*** (*** represents a decrease of HIF-a stabilization higher than 70%)
284	–	COc1ccc(C(O)COc2ccc(-c3nc(-c4ccc(OCC(O)c5ccc(OC)c(OC)c5)cc4)c(C)s3)cc2)cc1OC (stereo not drawn) [Compound I-7, 1-(3,4-dimethoxyphenyl)-2-[4-[2-[4-[2-(3,4-dimethoxyphenyl)-2-hydroxy-ethoxy]phenyl]-5-methyl-thiazol-4-yl]phenoxy]ethanol]	63	** (** represents a decrease of HIF-a stabilization between 50 to 70%)
